This note sets out measurements from patent publication US8404679B2, “Pyrrolidine derivatives as NK2 receptor antagonists” (Hoffmann-La Roche Inc., priority 2008, dated 2013).

By Ki is commonly meant the dissociation constant of the complex between target and ligand, obtained from inhibition or displacement.

The assay has as its target T1, human NK2 receptor (Homo sapiens, UniProt P21452).
T1 construct: purchased Perkin Elmer biosignal Inc. 6110510
T1 sequence (P21452 1-398): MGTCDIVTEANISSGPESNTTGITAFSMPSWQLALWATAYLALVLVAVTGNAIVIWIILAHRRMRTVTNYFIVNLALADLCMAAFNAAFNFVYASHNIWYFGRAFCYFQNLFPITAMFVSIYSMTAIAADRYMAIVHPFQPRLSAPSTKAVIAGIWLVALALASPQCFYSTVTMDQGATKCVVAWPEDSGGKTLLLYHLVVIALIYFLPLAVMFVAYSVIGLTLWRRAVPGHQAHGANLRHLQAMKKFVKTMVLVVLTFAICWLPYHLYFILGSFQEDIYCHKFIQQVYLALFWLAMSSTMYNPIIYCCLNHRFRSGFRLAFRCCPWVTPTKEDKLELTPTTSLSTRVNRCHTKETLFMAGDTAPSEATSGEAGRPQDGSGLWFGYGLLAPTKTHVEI
The assay is described as follows: [3H]SR48968 competition binding assay. To be noted: [3H]SR48968 displacement, membranes of CHO cells stably expressing recombinant human NK2 receptor; Ki from IC50 by Cheng-Prussoff. Here is the method:
[^3H]SR48968 Competition Binding Assay
hNK2 receptor binding experiment were performed using [^3H]SR48968 (Catalog No. TRK398, specific activity: 27.0 Ci/mmol, Amersham, GE Healthcare UK limited, Buckinghamshire, UK) and membrane isolated from CHO cells stably expressing recombinant human NK2 receptor (product No. 6110510, Perkin Elmer biosignal Inc., Shelton, Conn., USA). After thawing, the membrane homogenates were centrifuged at 48,000×g for 10 min at 4° C., the pellets were resuspended in the 50 mM Tris-HCl, 3 mM MnCl2, 4 μg/mL Chymostatin, 0.04% BSA binding buffer at pH 7.4 to a final assay concentration of 6.5 μg protein/well. For inhibition experiments, membranes were incubated with [^3H]SR48968 at a concentration equal to KD value of radioligand and 10 concentrations of the inhibitory compound (0.0003-10 μM) (in a total reaction volume of 500 μl) for 75 min at room temperature (RT). At the end of the incubation, membranes were filtered onto unitfilter (96-well white microplate with bonded GF/C filter preincubated 1 h in 0.3% polyethylenimine, Packard BioScience, Meriden, Conn.) with a Filtermate 196 harvester (Packard BioScience) and washed 4 times with ice-cold 50 mM Tris-HCl, pH 7.4 buffer. Nonspecific binding was measured in the presence of 10 μM 1-{2-[(R)-3-(3,4-dichloro-phenyl)-1-(3,4,5-trimethoxy-benzoyl)-pyrrolidin-3-yl]-ethyl}-4-phenyl-piperidine-4-carboxylic acid amide. The radioactivity on the filter was counted (5 min) on a Packard Top-count microplate scintillation counter with quenching correction after addition of 45 μl of microscint 40 (Canberra Packard S. A., Zürich, Switzerland) and shaking for 1 h. Inhibition curves were fitted according to the Hill equation: y=100/(1+(x/IC50)^nH), where nH=slope factor using Excel-fit 4 software (Microsoft). IC50 values were derived from the inhibition curve and the affinity constant (Ki) values were calculated using the Cheng-Prussoff equation Ki=IC50/(1+[L]/KD) where [L] was the concentration of radioligand and KD was its dissociation constant at the receptor, derived from the saturation isotherm.
In the case of `CN(C(=O)c1ccc(Cl)c(C(F)(F)F)c1)[C@H]1CN(C(=O)C2CCN(CC3CC3)CC2)C[C@@H]1c1ccc(Cl)cc1` [Example 153, 4-Chloro-N-[(3R,4S)-4-(4-chloro-phenyl)-1-(1-cyclopropylmethyl-piperidine-4-carbonyl)-pyrrolidin-3-yl]-N-methyl-3-trifluoromethyl-benzamide], the Ki came out at 52.7 nM.

Consider `COc1ccc(C(=O)N(C)[C@@H]2CN(C(=O)c3ccncc3)C[C@H]2c2ccc(Cl)c(Cl)c2)cc1C(F)(F)F` (racemic) [Example 51, rac-N-[(3S,4R)-4-(3,4-Dichloro-phenyl)-1-(pyridine-4-carbonyl)-pyrrolidin-3-yl]-4-methoxy-N-methyl-3-trifluoromethyl-benzamide], for which the Ki is 3 nM.

With `COc1ccc(C(=O)N(C)[C@H]2CN(C(=O)c3ccc(-c4nc(C)no4)cc3)C[C@@H]2c2ccc(Cl)c(Cl)c2)cc1C(F)(F)F` (racemic) [Example 147, N-{(3RS,4SR)-4-(3,4-Dichloro-phenyl)-1-[4-(3-methyl-[1,2,4]oxadiazol-5-yl)-benzoyl]-pyrrolidin-3-yl}-4-methoxy-N-methyl-3-trifluoromethyl-benzamide], the Ki stood at 1.4 nM.

With `CC(C#N)c1cccc(C(=O)N(C)[C@@H]2CN(C(=O)N3CCN(S(C)(=O)=O)CC3)C[C@H]2c2ccc(Cl)c(Cl)c2)c1` (mixture of isomers) [Example 35, rac-3-(Cyano-methyl-methyl)-N-[(3S,4R)-4-(3,4-dichloro-phenyl)-1-(4-methanesulfonyl-piperazine-1-carbonyl)-pyrrolidin-3-yl]-N-methyl-benzamide], the Ki turned out to be 28.5 nM.

For `CN(C(=O)c1cccc(C(F)(F)F)c1)[C@@H]1CN(C(=O)N2CCN(S(C)(=O)=O)CC2)C[C@H]1c1ccc(Cl)cc1` (racemic) [Example 7, rac-N-[(3S,4R)-4-(4-Chloro-phenyl)-1-(4-methanesulfonyl-piperazine-1-carbonyl)-pyrrolidin-3-yl]-N-methyl-3-trifluoromethyl-benzamide], the Ki is 33.9 nM.

For the compound `CN(C(=O)c1ccc(OCC(F)(F)F)nc1)[C@@H]1CN(C(=O)c2ccc(C#N)cc2)C[C@H]1c1ccc(Cl)c(Cl)c1` (racemic) [Example 82, rac-N-[(3S,4R)-1-(4-Cyano-benzoyl)-4-(3,4-dichloro-phenyl)-pyrrolidin-3-yl]-N-methyl-6-(2,2,2-trifluoro-ethoxy)-nicotinamide], the inhibition constant Ki is 11.7 nM.

Consider `CN(C(=O)c1ccc(C(F)(F)F)c(F)c1)[C@@H]1CN(C(=O)N2CCN(S(C)(=O)=O)CC2)C[C@H]1c1ccc(Cl)c(Cl)c1` (racemic) [Example 20, rac-N-[(3S,4R)-4-(3,4-Dichloro-phenyl)-1-(4-methanesulfonyl-piperazine-1-carbonyl)-pyrrolidin-3-yl]-3-fluoro-N-methyl-4-trifluoromethyl-benzamide], for which the Ki stood at 2.44 nM.

For `COc1ccc(C(=O)N(C)[C@H]2CN(C(=O)c3ccc(C#N)nc3)C[C@@H]2c2ccc(Cl)cc2)cc1C(F)(F)F` (racemic) [Example 90, N-[(3RS,4SR)-4-(4-Chloro-phenyl)-1-(6-cyano-pyridine-3-carbonyl)-pyrrolidin-3-yl]-4-methoxy-N-methyl-3-trifluoromethyl-benzamide], the Ki came to 11.7 nM.

Take `CN(C(=O)Cc1cccc(F)c1F)[C@H]1CN(C(=O)C2CCN(CC3CC3)CC2)C[C@@H]1c1ccc(Cl)c(Cl)c1` (racemic) [Example 152, N-[(3RS,4SR)-1-(1-Cyclopropylmethyl-piperidine-4-carbonyl)-4-(3,4-dichloro-phenyl)-pyrrolidin-3-yl]-2-(2,3-difluoro-phenyl)-N-methyl-acetamide]: the Ki is 23 nM.

As to `CN(C(=O)c1ccc(F)cc1)[C@@H]1CN(C(=O)N2CCN(S(C)(=O)=O)CC2)C[C@H]1c1ccc(Cl)c(Cl)c1` (racemic) [Example 10, rac-N-[(3S,4R)-4-(3,4-Dichloro-phenyl)-1-(4-methanesulfonyl-piperazine-1-carbonyl)-pyrrolidin-3-yl]-4-fluoro-N-methyl-benzamide], the Ki turned out to be 28.8 nM.

As for `CN(C(=O)c1ccc2c(c1)CCO2)[C@@H]1CN(C(=O)N2CCN(S(C)(=O)=O)CC2)C[C@H]1c1ccc(Cl)c(Cl)c1` (racemic) [Example 31, rac-2,3-Dihydro-benzofuran-5-carboxylic acid [(3S,4R)-4-(3,4-dichloro-phenyl)-1-(4-methanesulfonyl-piperazine-1-carbonyl)-pyrrolidin-3-yl]-methyl-amide], the inhibition constant Ki was 14.8 nM.

Turning to `CN(C(=O)c1ccc(F)cc1)[C@H]1CN(C(=O)C2CCN(C(=O)C3(C)CC3)CC2)C[C@@H]1c1ccc(Cl)c(Cl)c1` (racemic) [Example 100, N-{(3RS,4SR)-4-(3,4-Dichloro-phenyl)-1-[1-(1-methyl-cyclopropanecarbonyl)-piperidine-4-carbonyl]-pyrrolidin-3-yl}-4-fluoro-N-methyl-benzamide], the Ki was 2.3 nM.

Turning to `CN(C(=O)c1cccc(C(F)(F)F)c1F)[C@@H]1CN(C(=O)N2CCN(S(C)(=O)=O)CC2)C[C@H]1c1ccc(Cl)c(Cl)c1` (racemic) [Example 22, rac-N-[(3S,4R)-4-(3,4-Dichloro-phenyl)-1-(4-methanesulfonyl-piperazine-1-carbonyl)-pyrrolidin-3-yl]-2-fluoro-N-methyl-3-trifluoromethyl-benzamide], the Ki was 4.63 nM.

For the compound `COC1CCC(C(=O)N2C[C@H](c3ccc(Cl)c(Cl)c3)[C@@H](N(C)C(=O)Cc3ccc(F)cc3)C2)CC1` (mixture of isomers) [Example 127, N-[(3RS,4SR)-4-(3,4-Dichloro-phenyl)-1-(4-methoxy-cyclohexanecarbonyl)-pyrrolidin-3-yl]-2-(4-fluoro-phenyl)-N-methyl-acetamide], the Ki is 35 nM.

Regarding `COc1ccc(C(=O)N(C)[C@H]2CN(C(=O)C3CCNCC3)C[C@@H]2c2ccc(Cl)cc2)cc1C(F)(F)F` (racemic) [Example 103, N-[(3RS,4SR)-4-(4-Chloro-phenyl)-1-(piperidine-4-carbonyl)-pyrrolidin-3-yl]-4-methoxy-N-methyl-3-trifluoromethyl-benzamide], the Ki came to 7 nM.

On to `CCS(=O)(=O)N1CCC(C(=O)N2C[C@H](c3ccc(Cl)c(Cl)c3)[C@@H](N(C)C(=O)c3ccc(OC)c(C(F)(F)F)c3)C2)CC1` (racemic) [Example 140, N-[(3RS,4SR)-4-(3,4-Dichloro-phenyl)-1-(1-ethanesulfonyl-piperidine-4-carbonyl)-pyrrolidin-3-yl]-4-methoxy-N-methyl-3-trifluoromethyl-benzamide], for which the Ki was found to be 0.7 nM.

As for `COc1ccc(C(=O)N(C)[C@@H]2CN(C(=O)C3CCN(C(=O)C4(C)CC4)CC3)C[C@H]2c2ccc(Cl)cc2)cc1C(F)(F)F` [Example 94, N-{(3S,4R)-4-(4-Chloro-phenyl)-1-[1-(1-methyl-cyclopropanecarbonyl)-piperidine-4-carbonyl]-pyrrolidin-3-yl}-4-methoxy-N-methyl-3-trifluoromethyl-benzamide], the Ki is 0.6 nM.

In the case of `CN(C(=O)c1ccc(Cl)c(C(F)(F)F)c1)[C@@H]1CN(C(=O)C2CCN(C(=O)C3(C)CC3)CC2)C[C@H]1c1ccc(Cl)cc1` [Example 156, 4-Chloro-N-{(3S,4R)-4-(4-chloro-phenyl)-1-[1-(1-methyl-cyclopropanecarbonyl)-piperidine-4-carbonyl]-pyrrolidin-3-yl}-N-methyl-3-trifluoromethyl-benzamide], the Ki stood at 0.8 nM.

Regarding `CCOC(=O)N1CCC(C(=O)N2C[C@H](c3ccc(Cl)c(Cl)c3)[C@@H](N(C)C(=O)c3ccc(OC)c(C(F)(F)F)c3)C2)CC1` (racemic) [Example 145, 4-{(3SR,4RS)-3-(3,4-Dichloro-phenyl)-4-[(4-methoxy-3-trifluoromethyl-benzoyl)-methyl-amino]-pyrrolidine-1-carbonyl}-piperidine-1-carboxylic acid ethyl ester], the Ki was found to be 1.1 nM.

For `COc1ccc(C(=O)N(C)[C@@H]2CN(C(=O)N3CCN(S(C)(=O)=O)[C@@H](C)C3)C[C@H]2c2ccc(Cl)c(Cl)c2)cc1C(F)(F)F` [Example 42], the inhibitory constant (Ki) came out at 1.4 nM.
